Assays:
[1] = test system: HCV replicon RNA (GenBank Accession No. AJ242654); experiment: HCV Replicon Assay (replicon RNA reduction and/or Fluc reporter signal); assay type: cell-based, Hepatitis C virus; settings: Hepatitis C virus, 72 h, replicon-containing cells cultured with test compound for up to 3 days
Outline: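 Bicistronic replicon-containing cells cultured with compound for up to 3 days, with interferon as positive control. Inhibition quantified by replicon RNA reduction and/or Fluc reporter signal; IC50 values generally derived from replicon RNA reduction.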

N#Cc1c(-c2ccc(S(=O)(=O)NC(CF)CF)cc2)n(C2CCC2)c2ncc(C3CC3)cc12 [Cpd 130, 4-(3-cyano-1-cyclobutyl-5-cyclopropyl-1H-pyrrolo[2,3-b]pyridin-2-yl)-N-(1,3-difluoropropan-2-yl)benzenesulfonamide]
IC50 [1]: < 500 nM | melting point: 225 to 230 °C

C[C@H](NS(=O)(=O)c1ccc(-c2c(C#N)c3cc(Cl)cnc3n2-c2cnccn2)nc1)C(F)(F)F [Cpd 307, 6-[5-chloro-3-cyano-1-(pyrazin-2-yl)-1H-pyrrolo[2,3-b]pyridin-2-yl]-N-[(2S)-1,1,1-trifluoropropan-2-yl]pyridine-3-sulfonamide]
IC50 [1]: < 500 nM | melting point: 247 to 249 °C

CC(C)(C)NS(=O)(=O)c1ccc(-c2c(C#N)c3cc(C(F)(F)F)cnc3n2-c2ccccn2)cc1 [Cpd 336, N-tert-butyl-4-[3-cyano-1-(pyridin-2-yl)-5-(trifluoromethyl)-1H-pyrrolo[2,3-b]pyridin-2-yl]benzenesulfonamide]
IC50 [1]: 500 to 2000 nM | melting point: 227 to 230 °C

Cc1cnc2c(c1)c(C#N)c(-c1ccc(S(=O)(=O)NC3(C)CC3)cn1)n2C1CCC1 [Cpd 76, 6-(3-cyano-1-cyclobutyl-5-methyl-1H-pyrrolo[2,3-b]pyridin-2-yl)-N-(1-methylcyclopropyl)pyridine-3-sulfonamide]
IC50 [1]: 500 to 2000 nM | melting point: 188 to 189 °C

C[C@H](NS(=O)(=O)c1ccc(-c2c(C#N)c3ncc(Cl)cc3n2C2CCC2)cc1)C(F)(F)F [Cpd 235, 4-(6-chloro-3-cyano-1-cyclobutyl-1H-pyrrolo[3,2-b]pyridin-2-yl)-N-[(2S)-1,1,1-trifluoropropan-2-yl]benzenesulfonamide]
IC50 [1]: 500 to 2000 nM | melting point: 205 to 210 °C

C[C@H](NS(=O)(=O)c1ccc(-c2c(C#N)c3cc(F)cnc3n2C2CCC2)nc1)C(F)(F)F [Cpd 169, 6-(3-cyano-1-cyclobutyl-5-fluoro-1H-pyrrolo[2,3-b]pyridin-2-yl)-N-[(2S)-1,1,1-trifluoropropan-2-yl]pyridine-3-sulfonamide]
IC50 [1]: < 500 nM | melting point: 172 to 174 °C

CC(C)S(=O)(=O)Nc1ccc(-c2c(C#N)c3cc(C(F)F)cnc3n2C2CCC2)cc1 [Cpd 459, N-{4-[3-cyano-1-cyclobutyl-5-(difluoromethyl)-1H-pyrrolo[2,3-b]pyridin-2-yl]phenyl}propane-2-sulfonamide]
IC50 [1]: < 500 nM | melting point: 179 to 180 °C

CC(C)(NS(=O)(=O)c1ccc(-c2c(C#N)c3cc(C(F)(F)F)cnc3n2C2CCC2)nc1)C(F)(F)F [Cpd 395, 6-[3-cyano-1-cyclobutyl-5-(trifluoromethyl)-1H-pyrrolo[2,3-b]pyridin-2-yl]-N-(1,1,1-trifluoro-2-methylpropan-2-yl)pyridine-3-sulfonamide]
IC50 [1]: < 500 nM | melting point: 174 to 176 °C

Cc1cnc2c(c1)c(C#N)c(-c1ccc(S(=O)(=O)NC3(C)CC3)cn1)n2C1CCCC1 [Cpd 256, 6-(3-cyano-1-cyclopentyl-5-methyl-1H-pyrrolo[2,3-b]pyridin-2-yl)-N-(1-methylcyclopropyl)pyridine-3-sulfonamide]
IC50 [1]: 500 to 2000 nM | melting point: 143 to 153 °C

Cc1cnc2c(C#N)c(-c3ccc(S(=O)(=O)N[C@@H](C)C(F)(F)F)cn3)n(-c3ccccn3)c2c1 [Cpd 465, 6-[3-cyano-6-methyl-1-(pyridin-2-yl)-1H-pyrrolo[3,2-b]pyridin-2-yl]-N-[(2S)-1,1,1-trifluoropropan-2-yl]pyridine-3-sulfonamide]
IC50 [1]: < 500 nM | melting point: 242 to 244 °C

CC1(S(=O)(=O)Nc2ccc(-c3c(C#N)c4cc(C(F)(F)F)cnc4n3C3CCCCC3)cc2)CC1 [Cpd 426, N-{4-[3-cyano-1-cyclohexyl-5-(trifluoromethyl)-1H-pyrrolo[2,3-b]pyridin-2-yl]phenyl}-1-methylcyclopropanesulfonamide]
IC50 [1]: < 500 nM | melting point: 255 to 256 °C

CC1(NS(=O)(=O)c2ccc(-c3c(C#N)c4cnc(Cl)cc4n3C3CCCC3)nc2)CC1 [Cpd 84, 6-(6-chloro-3-cyano-1-cyclopentyl-1H-pyrrolo[3,2-c]pyridin-2-yl)-N-(1-methylcyclopropyl)pyridine-3-sulfonamide]
IC50 [1]: < 500 nM | melting point: 209 to 211 °C

CCc1cnc2c(c1)c(C#N)c(-c1ccc(S(=O)(=O)N[C@@H](C)C(F)(F)F)cn1)n2-c1ccccn1 [Cpd 414, 6-[3-cyano-5-ethyl-1-(pyridin-2-yl)-1H-pyrrolo[2,3-b]pyridin-2-yl]-N-[(2S)-1,1,1-trifluoropropan-2-yl]pyridine-3-sulfonamide]
IC50 [1]: < 500 nM | melting point: 190 to 195 °C

C[C@@H](NS(=O)(=O)c1ccc(-c2c(C#N)c3cc(Cl)ncc3n2C2CCC2)nc1)C(F)(F)F [Cpd 104, 6-(5-chloro-3-cyano-1-cyclobutyl-1H-pyrrolo[2,3-c]pyridin-2-yl)-N-[(2R)-1,1,1-trifluoropropan-2-yl]pyridine-3-sulfonamide]
IC50 [1]: < 500 nM | melting point: 181 to 185 °C

N#Cc1c(-c2ccc(NS(=O)(=O)C3CC3)cc2)n(C2CCC2)c2ncc(C(F)F)cc12 [Cpd 460, N-{4-[3-cyano-1-cyclobutyl-5-(difluoromethyl)-1H-pyrrolo[2,3-b]pyridin-2-yl]phenyl}cyclopropanesulfonamide]
IC50 [1]: < 500 nM | melting point: 193 to 195 °C

CC1(NS(=O)(=O)c2cnc(-c3c(C#N)c4cc(C5CC5)cnc4n3C3CCC3)nc2)CC1 [Cpd 129, 2-(3-cyano-1-cyclobutyl-5-cyclopropyl-1H-pyrrolo[2,3-b]pyridin-2-yl)-N-(1-methylcyclopropyl)pyrimidine-5-sulfonamide]
IC50 [1]: < 500 nM | melting point: 161 to 169 °C

C[C@H](NS(=O)(=O)c1ccc(-c2c(C#N)c3cnc(Cl)cc3n2C2CCC2)cc1)C(F)(F)F [Cpd 102, 4-(6-chloro-3-cyano-1-cyclobutyl-1H-pyrrolo[3,2-c]pyridin-2-yl)-N-[(2S)-1,1,1-trifluoropropan-2-yl]benzenesulfonamide]
IC50 [1]: < 500 nM | melting point: 202 to 203 °C

Cc1cnc2c(C#N)c(-c3ccc(S(=O)(=O)N[C@H](C)C(F)(F)F)cn3)n(C3CCC3)c2c1 [Cpd 207, 6-(3-cyano-1-cyclobutyl-6-methyl-1H-pyrrolo[3,2-b]pyridin-2-yl)-N-[(2R)-1,1,1-trifluoropropan-2-yl]pyridine-3-sulfonamide]
IC50 [1]: 500 to 2000 nM | melting point: 207 to 209 °C

C[C@H](NS(=O)(=O)c1ccc(-c2c(C#N)c3cnc(Cl)cc3n2C2CCCC2)cc1)C(F)(F)F [Cpd 87, 4-(6-chloro-3-cyano-1-cyclopentyl-1H-pyrrolo[3,2-c]pyridin-2-yl)-N-[(2S)-1,1,1-trifluoropropan-2-yl]benzenesulfonamide]
IC50 [1]: < 500 nM | melting point: 238 to 240 °C

CC(C)(C)NS(=O)(=O)c1ccc(-c2c(C(N)=O)c3cc(F)cnc3n2-c2ccccc2)nc1 [Cpd 527, 2-[5-(tert-butylsulfamoyl)pyridin-2-yl]-5-fluoro-1-phenyl-1H-pyrrolo[2,3-b]pyridine-3-carboxamide]
IC50 [1]: 500 to 2000 nM | melting point: 275.2 to 276.9 °C

C[C@H](NS(=O)(=O)c1ccc(-c2c(C#N)c3cnc(OC(F)F)nc3n2C2CCC2)nc1)C(F)(F)F [Cpd 62, 6-[5-cyano-7-cyclobutyl-2-(difluoromethoxy)-7H-pyrrolo[2,3-d]pyrimidin-6-yl]-N-[(2S)-1,1,1-trifluoropropan-2-yl]pyridine-3-sulfonamide]
IC50 [1]: < 500 nM | melting point: 172 to 174 °C

Reference: US9593108B2, “Compounds and methods for antiviral treatment” (PTC Therapeutics, Inc., priority 2009, dated 2017)
